Source: PubChem BioAssay AID2060883 (Molecular Pharmacology Branch, DTP, NCI, 2025)

Test system: 843782-103-R-J1-PDC complex spheroid viability
Experiment: Anticancer human tumor 843782-103-R-J1-PDC patient-derived lung adenocarcinoma cell line growth inhibition [RAS]
Conditions: for IC50: curve of first compound; for viability, T/C: stronger effect = lower value
Summary of the method: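 Agents were tested in combination matrices in half-log decrements from a top concentration at or near clinical Cmax (10 microM if undetermined). Targets were multi-cell spheroids of tumour lines plus HUVEC and MSC stromal cells.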

[1] = second compound 0.000949 µM, first compound 0.0316 µM
[2] = second compound 0.000949 µM, first compound 0.1 µM
[3] = second compound 0.000949 µM, first compound 0.316 µM
[4] = second compound 0.000949 µM, first compound 1 µM
[5] = second compound 0.000949 µM, first compound 3.16 µM
[6] = second compound 0.000949 µM, first compound 10 µM
[7] = second compound 0.003 µM, first compound 0.0316 µM
[8] = second compound 0.003 µM, first compound 0.1 µM
[9] = second compound 0.003 µM, first compound 0.316 µM
[10] = second compound 0.003 µM, first compound 1 µM
[11] = second compound 0.003 µM, first compound 3.16 µM
[12] = second compound 0.003 µM, first compound 10 µM
[13] = second compound 0.00949 µM, first compound 0.0316 µM
[14] = second compound 0.00949 µM, first compound 0.1 µM
[15] = second compound 0.00949 µM, first compound 0.316 µM
[16] = second compound 0.00949 µM, first compound 1 µM
[17] = second compound 0.00949 µM, first compound 3.16 µM
[18] = second compound 0.00949 µM, first compound 10 µM
[19] = second compound 0.03 µM, first compound 0.0316 µM
[20] = second compound 0.03 µM, first compound 0.1 µM
[21] = second compound 0.03 µM, first compound 0.316 µM
[22] = second compound 0.03 µM, first compound 1 µM
[23] = second compound 0.03 µM, first compound 3.16 µM
[24] = second compound 0.03 µM, first compound 10 µM
[25] = second compound 0.0949 µM, first compound 0.0316 µM
[26] = second compound 0.0949 µM, first compound 0.1 µM
[27] = second compound 0.0949 µM, first compound 0.316 µM
[28] = second compound 0.0949 µM, first compound 1 µM
[29] = second compound 0.0949 µM, first compound 3.16 µM
[30] = second compound 0.0949 µM, first compound 10 µM
[31] = second compound 0.3 µM, first compound 0.0316 µM
[32] = second compound 0.3 µM, first compound 0.1 µM
[33] = second compound 0.3 µM, first compound 0.316 µM
[34] = second compound 0.3 µM, first compound 1 µM
[35] = second compound 0.3 µM, first compound 3.16 µM
[36] = second compound 0.3 µM, first compound 10 µM
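Note: viability read after seven days of compound exposure.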

C[C@@H](NC(=O)c1ncnc(N)c1Cl)c1ncc(C(=O)Nc2cc(C(F)(F)F)c(Cl)cn2)s1 + CCn1c(-c2cc(N3CCN(C)CC3)cnc2C(C)OC)c2c3cc(ccc31)-c1csc(n1)CC(NC(=O)C1CC1C)C(=O)N1CCCC(N1)C(=O)OCC(C)(C)C2
IC50 (second compound 0.000949 µM): > 10000 nM | IC50 (second compound 0.003 µM): > 10000 nM | IC50 (second compound 0.00949 µM): < 31.6 nM | IC50 (second compound 0.03 µM): < 31.6 nM | IC50 (second compound 0.0949 µM): < 31.6 nM | IC50 (second compound 0.3 µM): < 31.6 nM | viability, T/C [1]: 84.4% | viability, T/C [2]: 78.1% | viability, T/C [3]: 85.8% | viability, T/C [4]: 79.6% | viability, T/C [5]: 89.8% | viability, T/C [6]: 84.3% | viability, T/C [7]: 68.9% | viability, T/C [8]: 70% | viability, T/C [9]: 67.5% | viability, T/C [10]: 68.6% | viability, T/C [11]: 74.6% | viability, T/C [12]: 64.7% | viability, T/C [13]: 41% | viability, T/C [14]: 51.6% | viability, T/C [15]: 48.4% | viability, T/C [16]: 44% | viability, T/C [17]: 53.6% | viability, T/C [18]: 48.2% | viability, T/C [19]: 22.9% | viability, T/C [20]: 26.2% | viability, T/C [21]: 28.8% | viability, T/C [22]: 32.5% | viability, T/C [23]: 34.7% | viability, T/C [24]: 33.4% | viability, T/C [25]: 19.8% | viability, T/C [26]: 18.8% | viability, T/C [27]: 19.8% | viability, T/C [28]: 21.6% | viability, T/C [29]: 24.3% | viability, T/C [30]: 23.7% | viability, T/C [31]: 15.4% | viability, T/C [32]: 15.6% | viability, T/C [33]: 19.1% | viability, T/C [34]: 17.5% | viability, T/C [35]: 19.6% | viability, T/C [36]: 18.6%

CC1(O)CCCC1n1c(=O)c(C(F)F)cc2cnc(NC3CCN(S(C)(=O)=O)CC3)nc21 (stereo unspecified) + CCn1c(-c2cccnc2C(C)OC)c2c3cc(ccc31)N1CCOC(CC(NC(=O)C(C(C)C)N(C)C(=O)C3(F)CCN(C(=O)C#CC(C)(C)N(C)C)CC3)C(=O)N3CCCC(N3)C(=O)OCC(C)(C)C2)C1
IC50 (second compound 0.000949 µM): 59 nM | IC50 (second compound 0.003 µM): 77.4 nM | IC50 (second compound 0.00949 µM): 71.8 nM | IC50 (second compound 0.03 µM): 62.4 nM | IC50 (second compound 0.0949 µM): 73.9 nM | IC50 (second compound 0.3 µM): 59.5 nM | viability, T/C [1]: 60.3% | viability, T/C [2]: 41.9% | viability, T/C [3]: 26.5% | viability, T/C [4]: 18.6% | viability, T/C [5]: 19% | viability, T/C [6]: 2.09% | viability, T/C [7]: 64.3% | viability, T/C [8]: 48.8% | viability, T/C [9]: 24.5% | viability, T/C [10]: 22.2% | viability, T/C [11]: 14.9% | viability, T/C [12]: 2.67% | viability, T/C [13]: 61.6% | viability, T/C [14]: 43.5% | viability, T/C [15]: 32.4% | viability, T/C [16]: 23.2% | viability, T/C [17]: 15.3% | viability, T/C [18]: 2.34% | viability, T/C [19]: 58.2% | viability, T/C [20]: 45.9% | viability, T/C [21]: 28.3% | viability, T/C [22]: 24.2% | viability, T/C [23]: 15.5% | viability, T/C [24]: 4.11% | viability, T/C [25]: 60.5% | viability, T/C [26]: 50.1% | viability, T/C [27]: 25.9% | viability, T/C [28]: 24.4% | viability, T/C [29]: 16.4% | viability, T/C [30]: 2.24% | viability, T/C [31]: 60.5% | viability, T/C [32]: 43.2% | viability, T/C [33]: 21.9% | viability, T/C [34]: 23% | viability, T/C [35]: 19.4% | viability, T/C [36]: 1.76%

Nc1ccn(C2OC(CO)C(O)C2(F)F)c(=O)n1 (stereo unspecified) + CCn1c(-c2cccnc2C(C)OC)c2c3cc(ccc31)N1CCOC(CC(NC(=O)C(C(C)C)N(C)C(=O)C3(F)CCN(C(=O)C#CC(C)(C)N(C)C)CC3)C(=O)N3CCCC(N3)C(=O)OCC(C)(C)C2)C1
IC50 (second compound 0.000949 µM): 11 nM | IC50 (second compound 0.003 µM): 16.6 nM | IC50 (second compound 0.00949 µM): 13.1 nM | IC50 (second compound 0.03 µM): 16.7 nM | IC50 (second compound 0.0949 µM): 16.9 nM | IC50 (second compound 0.3 µM): 14.3 nM | viability, T/C (second compound 0.000949 µM, first compound 0.00316 µM): 70.1% | viability, T/C (second compound 0.000949 µM, first compound 0.01 µM): 52% | viability, T/C [1]: 22.1% | viability, T/C [2]: 2.91% | viability, T/C [3]: 1.53% | viability, T/C [4]: 1.52% | viability, T/C (second compound 0.003 µM, first compound 0.00316 µM): 77.5% | viability, T/C (second compound 0.003 µM, first compound 0.01 µM): 72% | viability, T/C [7]: 21.7% | viability, T/C [8]: 2.04% | viability, T/C [9]: 1.96% | viability, T/C [10]: 2.38% | viability, T/C (second compound 0.00949 µM, first compound 0.00316 µM): 73.3% | viability, T/C (second compound 0.00949 µM, first compound 0.01 µM): 59.4% | viability, T/C [13]: 18.9% | viability, T/C [14]: 2.07% | viability, T/C [15]: 1.82% | viability, T/C [16]: 1.89% | viability, T/C (second compound 0.03 µM, first compound 0.00316 µM): 72.4% | viability, T/C (second compound 0.03 µM, first compound 0.01 µM): 74.5% | viability, T/C [19]: 21.1% | viability, T/C [20]: 2.07% | viability, T/C [21]: 1.99% | viability, T/C [22]: 1.85% | viability, T/C (second compound 0.0949 µM, first compound 0.00316 µM): 85.6% | viability, T/C (second compound 0.0949 µM, first compound 0.01 µM): 69.9% | viability, T/C [25]: 26.4% | viability, T/C [26]: 2.27% | viability, T/C [27]: 1.51% | viability, T/C [28]: 1.37% | viability, T/C (second compound 0.3 µM, first compound 0.00316 µM): 70.4% | viability, T/C (second compound 0.3 µM, first compound 0.01 µM): 62.7% | viability, T/C [31]: 21.8% | viability, T/C [32]: 2.7% | viability, T/C [33]: 1.81% | viability, T/C [34]: 1.46%
